# Laboratory results: US12521423B2, “Method and composition for treating gastrointestinal inflammatory disorders” (THE REGENTS OF THE UNIVERSITY OF COLORADO, a body corporate, priority 2019, dated 2026)
# Where two headings read alike, the source gives them in different places.
# What was measured:
# T84 cells [1] = test: HPLC adenylate and energy metabolite analyses of treated T84 cells; type: cell-based
# T84 cells [2] = test: calcium switch assay / transepithelial resistance of T84 monolayers; type: cell-based
# Experimental: This model utilizes transient divalent cation chelation to disrupt epithelial tight junctions in fully confluent cells.
# Briefly, polarized, high-resistant (>1,500 Ω·cm2) T84 monolayers on 0.33 cm^2 (non-metabolomic) or 5 cm^2 (metabolomics) transwell inserts (Costar, 0.4 μm) were equilibrated for 1 h in HBSS in the case of non-metabolomic analyses and approx. 20 h in the case of metabolomic analyses. All experiments were performed at 37° C. and transepithelial resistance monitored using a voltohmeter (World Precision Instruments EVOM). Extracellular Ca^2+ was chelated via washing and incubation with Ca^2+-free HBSS supplemented with 2 mM EDTA for 5 min, after which the samples were washed into HBSS with normal calcium (1.8 mM).
# To our surprise, this analysis identified an inverse correlation between Hpx and barrier, with Hpx spiking from approx. 1 to 3.5 μM (p<0.004) at the barrier nadir. […] To extend this observation, T84 cells were supplemented with Hpx (range 0.1-1 mM, 20 h) and a calcium switch assay performed.
# Allopurinol (Allo) is a structural analog of hypoxanthine commonly used to treat gout. The drug is metabolized into oxipurinol by xanthine oxidase (XO), which in turn inhibits XO and decreases uric acid. Allopurinol was employed as a competitive substrate/inhibitor for hypoxanthine-guanine phosphoribosyl transferase (HGPRT) to assess the contribution of Hpx salvage to the barrier formation process using the calcium switch assay and transepithelial resistance measurements described above.
# T84 cells [3] = conditions: 1 mM Hpx
# Experimental: To examine the impact of Hpx supplementation on epithelial function during physiologically-relevant metabolic stress, T84 cells were exposed to hypoxia (1% O2, 40 h) in the presence and absence of 1 mM Hpx, and barrier and adenylate metabolites monitored.
# T84 cells [4] = conditions: 1 mM hypoxanthine, 88 h, p<0.001
# Experimental: We also employed a scratch wound assay to assess the influence of Hpx supplementation on cellular restitution. T84 cells were plated at 35,000 cells per well on a 96-well ImageLock tissue culture plate (Essen Bioscience Inc.) and incubated in standard conditions until a confluent cell monolayer formed (˜24 h). Precise and reproducible wounds were made in all wells with a WoundMaker (Essen Bioscience Inc.). […] Initial images were taken immediately after wounding at 10× using the IncuCyte live-cell imaging (Essen Bioscience Inc.), and then every 2 h over the course of 88 h in culture. Relative wound closure (%) was quantified for every image using the relative wound density metric, a measure of cell density in the wound area relative to the cell density outside of the wound area.
# [5] = tested on: colonic adenylate and energy metabolism; conditions: Hpx 1 mM enema 5 and 18 h before sacrifice
# Experimental: To assess the influence of purine supplementation on colonic adenylate and energy metabolism, MDP was depleted by treating mice with streptomycin, and reconstituted by administration of Hpx (1 mM) by enema at time points of 5 and 18 h before sacrifice and distal colon tissue metabolite extracts analyzed.
# DSS colitis = conditions: for body weight lost: no Hpx ~9; for sterility index: from 0; for tissue AEC: from 0.30; for BiP: from 0.41; for sterile inner mucin layer: from ~1; for colon length: no Hpx ~5.75
# Experimental: (§1) To validate the role of exogenous purine supply on colonic function, streptomycin-treated mice (S-0 mM HPX-DSS) were supplemented with 1 and 5 mM Hpx (S-1 mM HPX-DSS and S-5 mM HPX-DSS) in their drinking water and submitted to DSS colitis.
# [6] = 10 mM Hpx in drinking water
# Experimental: as §1
# [7] = tested on: total colonic purine levels; test: colon tissue metabolites at baseline in CR mice, streptomycin treatment and K12 colonization; type: in vivo; conditions: no DSS
# Text: (§2) Bacterial supply of purine was depleted in CR mice (CR-CNTL) via streptomycin treatment (S-CR-CNTL), and reconstituted by colonization with streptomycin-resistant K12 (S-CR-K12).
# DSS-induced colitis = test: DSS colitis in CR mice, streptomycin treatment and K12 colonization; conditions: colon tissue
# Text: as §2
# Visualization of the colon tissues by hematoxylin and eosin (H&E) staining in the CR mouse groups reveal two key differences between tissue with and without MDP supply. […] These phenotypes correlate with the adenylate energy charge (AEC, (ATP+0.5×ADP)/(ATP+ADP+AMP))—a commonly used index used to indicate cellular energy status that is defined by relative adenine nucleotide levels, providing a more functionally relevant indicator of energy balance than ATP and/or PCr alone.
# Given the association between the AEC and cellular function and the metabolic data indicative of MDP promoting flux through ATP, the colon tissue analyses were extended to Ki67 as marker of proliferation.
# Due to the importance of ATP supply for ER function, the colon tissue immunofluorescent analyses were extended to BiP as a marker of ER stress and the UPR.
# Goblet cells require robust ER function for mucin protein folding and dimerization, prompting analyses of the impact of MDP on colonic mucin production and secretion. To observe mucin production tissue sections were stained with alcian blue. […]
# murine microbiota = test: HPLC analyses of murine fecal extracts after streptomycin treatment; type: in vivo, mice
# Text: Analyses of soluble, extracellular murine fecal metabolite extracts by HPLC identified substantial levels of available purine (˜550 nmol/g), primarily as hypoxanthine (Hpx, ˜350 nmol/g). The production of purines by the microbiota was verified by fecal extract analyses of streptomycin-treated mice, which decreased the available fecal purine more than 80%, lowering available Hpx to <50 nmol/g.
# [8] = subconfluent T84 cells, Allo 20 h
compound,measurement,setting,value
"Nc1ncnc2c1ncn2[C@@H]1O[C@H](COP(=O)(O)OP(=O)(O)O)[C@@H](O)[C@H]1O [ADP, adenosine diphosphate]",Hpx increase in T84 IECs,T84 cells [1]; 100 μM ADP,~15 fold
"Oc1ncnc2[nH]ncc12 [Allo, Allopurinol]",T84 cell barrier formation,"T84 cells [2]; Allo 1 mM, p<0.001",significantly attenuated
same,"Adenine, IMP, and UA levels",T84 cells [1]; [8],undetectable to trace levels
same,TAE,T84 cells [1]; [8],corresponding increase
same,Xan and Ino levels,T84 cells [1]; [8],small increases
same,PCr level,"T84 cells [1]; subconfluent T84 cells, Allo 20 h, from approx. 20",~27 µM
same,Hpx level,"T84 cells [1]; subconfluent T84 cells, Allo 20 h, from approx. 400",~250 nM
same,Ado level,"T84 cells [1]; subconfluent T84 cells, Allo 20 h, from trace/undetectable",approx. 400 nM
"O=c1[nH]cnc2nc[nH]c12 [Hpx, hypoxanthine]",total available energy (TAE) under hypoxia,T84 cells [3]; hypoxia 1% O2,significant recovery
same,increase of overall barrier resistance above control conditions,"T84 cells [3]; hypoxia 1% O2, 40 h",approx. 1.3 fold
same,increase of epithelial wound closure rate following scratching,T84 cells [4],approx. 1.5 fold
same,colonic AMP,[5]; from 58,84 nmol/g
same,colonic ADP,[5]; from 80,123 nmol/g
same,colonic ATP,[5]; from 192,154 nmol/g
same,total colonic purine,[5]; from 490,560 nmol/g
same,colonic phosphocreatine (PCr),[5]; from 3700,2000 nmol/g
same,barrier throughout the course of the experiment,"T84 cells [2]; 300 μM and 1 mM Hpx, p<0.03",improved barrier
same,cellular barrier and barrier reformation (calcium switch),"T84 cells [2]; Hpx pre-loading 0.1-1 mM, 20 h",protective of cellular barrier and promoted barrier reformation in a dose-responsive manner
same,body weight lost,DSS colitis; 1 mM Hpx in drinking water,~3%
same,sterility index,DSS colitis; 1 mM Hpx,0.56
same,tissue proliferation,"DSS colitis; 1 mM Hpx, from 0.22",0.54 Ki67/DAPI
same,tissue AEC,DSS colitis; 1 mM Hpx,0.38
same,BiP,DSS colitis; 1 mM Hpx,0.23 BiP/DAPI
same,sterile inner mucin layer,DSS colitis; 1 mM Hpx,~9 μm
same,colon length,DSS colitis; 1 mM Hpx,~6.3 cm
same,body weight lost,DSS colitis; 5 mM Hpx in drinking water,~7%
same,tissue proliferation,"DSS colitis; 5 mM Hpx, control 0.22",0.19 Ki67/DAPI
same,sterility index,DSS colitis; 5 mM Hpx,0.78
same,tissue AEC,DSS colitis; 5 mM Hpx,0.42
same,BiP,DSS colitis; 5 mM Hpx,0.24 BiP/DAPI
same,sterile inner mucin layer,DSS colitis; 5 mM Hpx,~11 μm
same,colon length,DSS colitis; 5 mM Hpx,~6.5 cm
same,epithelial cell population and mucin production (H&E),DSS colitis; Hpx supplementation,recovered
same,"goblet cell mucin production, thecal volumes",DSS colitis; Hpx supplementation,increased thecal volumes
same,urination,[6],excessively urinate
same,increase of intracellular Hpx levels,"T84 cells [1]; T84 cells, Hpx 0.1-1 mM, 20 h pre-exposure",up to 100 fold
Nc1ncnc2c1ncn2[C@@H]1O[C@H](CO)[C@@H](O)[C@H]1O [adenosine],Hpx increase in T84 IECs,T84 cells [1]; 1 mM adenosine,over 150 fold
[H]/N=C(/N)N[C@H]1[C@H](O)[C@@H](O)[C@H](O[C@@H]2O[C@@H](C)[C@](O)(C=O)[C@H]2O[C@@H]2O[C@@H](CO)[C@H](O)[C@@H](O)[C@@H]2NC)[C@@H](N/C(N)=N\[H])[C@@H]1O [streptomycin],colon tissue Xan,[7]; CR-CNTL 207,69 nmol/g
same,total colonic purine levels,[7]; CR-CNTL 809,630 nmol/g
same,goblet cell thecal volumes (alcian blue),DSS-induced colitis,broad decline
same,adenylate energy charge (AEC),DSS-induced colitis; CR-CNTL-DSS 0.51,0.44
same,measurable fecal hypoxanthine,murine microbiota; 1 day after streptomycin treatment,nearly complete loss
same,available fecal Hpx,murine microbiota; streptomycin-treated mice,< 50 nmol/g
same,decrease of available fecal purine,murine microbiota; streptomycin-treated mice,more than 80%
